Results as given in paper PMC10668861 (2023).

Tested on: F21D (DNA, G4) GGGTTAGGGTTAGGGTTAGGG
Experiment: FRET melting
Details: 5 mM K+, 95 mM Li+; 10 mM lithium cacodylate, pH 7.2; 0.2 µM DNA, 4 µM compound

**Q.** Which ΔTm does the source give for `[Ru+2].c1ccc(-c2ccccn2)nc1.c1ccc(-c2ccccn2)nc1.c1ccc2nc3c4cccnc4c4ncccc4c3nc2c1` here?
**A.** 14 ± 1 °C
